From ChEMBL document CHEMBL5154681, “Small Amphiphilic Peptides: Activity Against a Broad Range of Drug-Resistant Bacteria and Structural Insight into Membranolytic Properties” (J Med Chem, 2022)
In brackets after ≈: the same amount, converted by molar mass. Activity calls are given as the source filed them. The calls are words filed in the database; no cut-off is given here. Square brackets hold non-standard residues; d marks the D form. Peptide text beside a SMILES is read from it. Dip = N[C@H](C(=O)O)C(c1ccccc1)c1ccccc1; 2Nal = N[C@@H](Cc1ccc2ccccc2c1)C(=O)O

Experiments:
Klebsiella pneumoniae = experiment: Antibacterial activity against carbapenem-resistant Klebsiella pneumoniae ATCC BAA-2470 incubated for 24 hrs by microtiter plate method; format: functional
[1] = Cytotoxicity against human MRC-5 assessed as cell viability at 150 ug/ml incubated for 24 hrs by microplate spectrophotometer analysis method relative to control; format: toxicity, cell-based, MRC5; details: MRC-5 cells, at 150 µg/mL, read-out: Activity
Escherichia coli [2] = experiment: Antibacterial activity against Escherichia coli ATCC 25922 after 24 hrs in presence of fetal bovine serum by microtiter plate method; format: functional
Escherichia coli [3] = experiment: Antibacterial activity against Escherichia coli ATCC 25922 after 24 hrs in presence of 2 mM CaCl2 at by microtiter plate method; format: functional
Escherichia coli [4] = experiment: Antibacterial activity against Escherichia coli ATCC 25922 incubated for 24 hrs by microtiter plate method; format: functional; details: Escherichia coli
[5] = Cytotoxicity against HEK293 assessed as cell viability at 50 ug/ml incubated for 24 hrs by microplate spectrophotometer analysis method relative to control; format: toxicity, cell-based; details: human, HEK293 cells, at 50 µg/mL, read-out: Activity
Pseudomonas aeruginosa = experiment: Antibacterial activity against imipenem resistant Pseudomonas aeruginosa ATCC BAA-1744 incubated for 24 hrs by microtiter plate method; format: functional
[6] = Proteolytic stability in human plasma at 100 uM incubated for 24 hrs by Q-TOF LC/MS analysis relative to control; format: ADME, cell-free; details: read-out: Stability
Enterococcus faecalis = experiment: Potency index, ratio of daptomycin MIC to test compound MIC for antibacterial activity against vancomycin resistant Enterococcus faecalis ATCC 51575; format: functional
Lipid bilayer [7] = experiment: Membrano-lytic effect in bacterial inner membrane mimic DOPC/DOPG (7:3) large unilamellar vesicles assessed as calcein leakage measured at 50 microg/ml, incubated for 40 mins by multimode microplate reader assay; format: cell membranes; details: dose 50.0 µg/ml
Escherichia coli [8] = experiment: Antibacterial activity against Escherichia coli ATCC 25922 assessed as reduction in microbial growth after 24 hrs in presence of 6 mM of NH4Cl at by microtiter plate method; format: functional
Staphylococcus aureus [9] = experiment: Bactericidal activity against methicillin resistant Staphylococcus aureus ATCC BAA-1556 assessed as reduction of bacterial growth at 4 times MIC by counting formed colonies; format: functional, organism-based; details: time <= 4.0 hrs, TDE = time-dependent effect
Escherichia coli [10] = experiment: Antibacterial activity against Escherichia coli ATCC BAA-2452 assessed as membrane atrophy at 4 times of MIC incubated for 30 mins by FE-SEM analysis; format: functional, organism-based
Escherichia coli [11] = experiment: Antibacterial activity against Escherichia coli ATCC 25922 incubated for 24 hrs; format: functional
Streptococcus pneumoniae [12] = experiment: Antibacterial activity against […] ATCC 49619 incubated for 24 hrs by microtiter plate method; format: functional
HepaRG = experiment: Cytotoxicity against human HPRGC10 assessed as cell viability at 150 ug/ml incubated for 24 hrs by microplate spectrophotometer analysis method relative to control; format: functional; details: read-out: Activity
Escherichia coli [13] = experiment: Bactericidal activity against Escherichia coli ATCC BAA-2452 assessed as reduction of bacterial growth at MIC by counting formed colonies; format: functional, organism-based; details: time <= 4.0 hrs, TDE = time-dependent effect
Cell membrane [14] = experiment: Membrano-lytic effect in cytoplasmic membrane of Escherichia coli ATCC BAA-2452 assessed as disruption by measuring propidium iodide fluorescence at MIC incubated for 1 hr by FACscan flow cytometer analysis
Bacillus cereus = experiment: Antibacterial activity against Bacillus cereus ATCC 13061 incubated for 24 hrs by microtiter plate method; format: functional
Staphylococcus aureus [15] = experiment: Bactericidal activity against methicillin resistant Staphylococcus aureus ATCC BAA-1556 assessed as reduction of bacterial growth at MIC by counting formed colonies; format: functional, organism-based; details: time <= 4.0 hrs, TDE = time-dependent effect
Cell membrane [16] = experiment: Membrano-lytic effect in cytoplasmic membrane of Escherichia coli ATCC BAA-2452 assessed as disruption by measuring propidium iodide fluorescence incubated for 1 hr by FACscan flow cytometer analysis; details: DDE = dose-dependent effect
Staphylococcus aureus [17] = experiment: Antibacterial activity against methicillin resistant Staphylococcus aureus ATCC BAA-1556 after 24 hrs in presence of 6 mM of NH4Cl by microtiter plate method; format: functional
Enterococcus faecium = experiment: Antibacterial activity against vancomycin-resistant Enterococcus faecium ATCC 700221 incubated for 24 hrs by microtiter plate method; format: functional
Streptococcus pneumoniae [18] = experiment: Antibacterial activity against multidrug resistant […] ATCC 700677 incubated for 24 hrs by microtiter plate method; format: functional
Staphylococcus aureus [19] = experiment: Antibacterial activity against methicillin-resistant Staphylococcus aureus ATCC BAA-1556 assessed as membrane atrophy at 4 times of MIC incubated for 30 mins by FE-SEM analysis; format: functional, organism-based
Lipid bilayer [20] = experiment: Membrano-lytic effect in bacterial inner membrane mimic DOPC/DOPG (7:3) large unilamellar vesicles assessed as calcein leakage measured at 50 microg/ml, incubated for 50 mins by multimode microplate reader assay; format: cell membranes; details: dose 50.0 µg/ml

## N=C(N)NCCC[C@@H]1NC(=O)[C@H](CCCNC(=N)N)NC(=O)[C@H](CCCNC(=N)N)NC(=O)[C@H](Cc2ccc3ccccc3c2)NC(=O)[C@H](Cc2ccc3ccccc3c2)NC(=O)[C@H](Cc2ccc3ccccc3c2)NC(=O)[C@H](CCCNC(=N)N)NC1=O (cyclo(RRRR[2Nal][2Nal][2Nal]))
Klebsiella pneumoniae
  MIC: 12.5 µg/mL (≈ 10.3 µM)
[1]
  viability at 24 h, 150 ug/ml: 36%
Escherichia coli [2]
  MIC: > 50 µg/mL
Escherichia coli [3]
  MIC: 25 µg/mL
Escherichia coli [4]; ATCC 25922, 24 h, read-out: MIC
  MIC: 25 µg/mL (≈ 20.6 µM)
[5]
  viability at 24 h, 50 ug/ml: 80%
Pseudomonas aeruginosa
  MIC: 12.5 µg/mL (≈ 10.3 µM)
[6]
  remaining at 24 h, 100 µM: 60%
Enterococcus faecalis
  Ratio: 2
Lipid bilayer [7]
  Activity: 100%
Escherichia coli [8]
  MIC: 25 µg/mL
Staphylococcus aureus [9]
  Activity: Tde
Escherichia coli [10]
  Activity: Active
Escherichia coli [11]
  MBC: 100 µg/mL (≈ 82.2 µM)
Streptococcus pneumoniae [12]
  MIC: 25 µg/mL (≈ 20.6 µM)
HepaRG
  viability at 150 µg/mL: 61%
Escherichia coli [13]
  Activity: Tde
Cell membrane [14]
  Activity: 50%
Bacillus cereus
  MIC: 3.1 µg/mL (≈ 2.55 µM)
Staphylococcus aureus [15]
  Activity: Tde
Cell membrane [16]
  Activity: Dde
Staphylococcus aureus [17]
  MIC: 3.1 µg/mL
Enterococcus faecium
  MIC: 3.1 µg/mL (≈ 2.55 µM)
Streptococcus pneumoniae [18]
  MIC: 12.5 µg/mL (≈ 10.3 µM)
Staphylococcus aureus [19]
  Activity: Active

## N=C(N)NCCC[C@@H]1NC(=O)[C@H](CCCNC(=N)N)NC(=O)[C@H](CCCNC(=N)N)NC(=O)[C@H](C(c2ccccc2)c2ccccc2)NC(=O)[C@H](C(c2ccccc2)c2ccccc2)NC(=O)[C@H](C(c2ccccc2)c2ccccc2)NC(=O)[C@H](CCCNC(=N)N)NC1=O (cyclo(RRRR[Dip][Dip][Dip]))
Klebsiella pneumoniae
  MIC: 12.5 µg/mL (≈ 9.66 µM)
[1]
  viability at 24 h, 150 ug/ml: 36%
Escherichia coli [2]
  MIC: 50 µg/mL
Escherichia coli [3]
  MIC: 12.5 µg/mL
Escherichia coli [4]; ATCC 25922, read-out: MIC
  MIC: 12.5 µg/mL (≈ 9.66 µM)
[5]
  viability at 24 h, 50 ug/ml: 80%
Pseudomonas aeruginosa
  MIC: 12.5 µg/mL (≈ 9.66 µM)
[6]
  remaining at 24 h, 100 µM: 65%
Enterococcus faecalis
  Ratio: 2
Escherichia coli [8]
  MIC: 12.5 µg/mL
Staphylococcus aureus [9]
  Activity: Tde
Escherichia coli [10]
  Activity: Active
Escherichia coli [11]
  MBC: 25 µg/mL (≈ 19.3 µM)
Streptococcus pneumoniae [12]
  MIC: 25 µg/mL (≈ 19.3 µM)
HepaRG
  viability at 150 µg/mL: 61%
Escherichia coli [13]
  Activity: Tde
Cell membrane [14]
  Activity: 50%
Bacillus cereus
  MIC: 3.1 µg/mL (≈ 2.39 µM)
Staphylococcus aureus [15]
  Activity: Tde
Lipid bilayer [20]
  Activity: 100%
Cell membrane [16]
  Activity: Dde
Staphylococcus aureus [17]
  MIC: 3.1 µg/mL
Enterococcus faecium
  MIC: 3.1 µg/mL (≈ 2.39 µM)
Streptococcus pneumoniae [18]
  MIC: 25 µg/mL (≈ 19.3 µM)
Staphylococcus aureus [19]
  Activity: Active
